Assays:
DNMT1 [1] = biological target: T1, DNMT1 (Homo sapiens, UniProt P26358); assay: in vitro DNMT activity/inhibition assay with purified DNMT1, positive control; type: biochemical
DNMT1 [2] = biological target: T1, DNMT1; assay: in vitro DNMT activity/inhibition assay (colorimetric, Active Motif) with purified DNMT1; type: biochemical

T1 sequence (P26358 whole entry): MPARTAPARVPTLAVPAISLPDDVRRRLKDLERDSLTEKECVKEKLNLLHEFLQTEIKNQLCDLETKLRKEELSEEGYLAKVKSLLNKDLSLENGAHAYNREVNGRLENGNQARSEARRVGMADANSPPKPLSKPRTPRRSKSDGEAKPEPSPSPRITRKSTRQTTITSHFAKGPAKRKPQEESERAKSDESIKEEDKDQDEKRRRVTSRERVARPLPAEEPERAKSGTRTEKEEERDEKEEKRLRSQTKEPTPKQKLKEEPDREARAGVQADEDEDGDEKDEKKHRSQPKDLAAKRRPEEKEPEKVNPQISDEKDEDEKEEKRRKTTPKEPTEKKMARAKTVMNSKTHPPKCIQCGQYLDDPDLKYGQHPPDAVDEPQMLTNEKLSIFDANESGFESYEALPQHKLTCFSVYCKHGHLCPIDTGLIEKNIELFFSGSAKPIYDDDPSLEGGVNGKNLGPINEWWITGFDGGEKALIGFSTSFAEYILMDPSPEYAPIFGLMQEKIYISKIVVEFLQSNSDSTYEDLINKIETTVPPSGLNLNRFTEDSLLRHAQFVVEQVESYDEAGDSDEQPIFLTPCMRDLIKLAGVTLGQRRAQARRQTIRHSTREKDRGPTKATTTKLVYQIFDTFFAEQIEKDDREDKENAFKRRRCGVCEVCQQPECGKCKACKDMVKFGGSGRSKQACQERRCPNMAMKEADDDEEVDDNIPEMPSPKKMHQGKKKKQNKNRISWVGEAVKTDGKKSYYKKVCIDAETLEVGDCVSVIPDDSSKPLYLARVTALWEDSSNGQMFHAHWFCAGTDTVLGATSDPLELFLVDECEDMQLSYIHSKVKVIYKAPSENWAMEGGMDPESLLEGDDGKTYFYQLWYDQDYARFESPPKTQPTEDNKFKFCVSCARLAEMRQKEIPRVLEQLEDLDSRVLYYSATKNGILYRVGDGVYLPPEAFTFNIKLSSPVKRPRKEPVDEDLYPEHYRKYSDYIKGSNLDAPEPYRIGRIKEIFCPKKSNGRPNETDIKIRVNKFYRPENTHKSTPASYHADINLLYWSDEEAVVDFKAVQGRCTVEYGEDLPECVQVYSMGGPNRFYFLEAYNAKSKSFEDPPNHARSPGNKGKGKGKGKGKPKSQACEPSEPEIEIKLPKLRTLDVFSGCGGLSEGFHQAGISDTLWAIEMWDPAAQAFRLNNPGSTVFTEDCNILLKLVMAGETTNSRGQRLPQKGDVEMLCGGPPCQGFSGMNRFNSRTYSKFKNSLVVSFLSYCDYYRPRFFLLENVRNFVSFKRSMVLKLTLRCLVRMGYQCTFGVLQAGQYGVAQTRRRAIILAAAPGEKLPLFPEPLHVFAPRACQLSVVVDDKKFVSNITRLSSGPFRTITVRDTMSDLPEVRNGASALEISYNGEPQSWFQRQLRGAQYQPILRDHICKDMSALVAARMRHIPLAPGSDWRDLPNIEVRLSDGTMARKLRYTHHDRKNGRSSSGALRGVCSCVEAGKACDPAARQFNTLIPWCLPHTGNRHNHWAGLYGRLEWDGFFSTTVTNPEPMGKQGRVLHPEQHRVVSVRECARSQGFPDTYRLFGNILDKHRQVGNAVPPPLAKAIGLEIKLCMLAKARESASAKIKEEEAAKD

Structure (SMILES) | in vitro DNMT activity/inhibition assay with purified DNMT1, positive control (DNMT1 [1]) | IC50 (DNMT1 [2]) [µM]
O=C(O[C@@H]1Cc2c(O)cc(O)cc2O[C@@H]1c1cc(O)c(O)c(O)c1)c1cc(O)c(O)c(O)c1 [EGCG, Epigallocatechin gallate] | Green tea polyphenol EGCG was used as a positive control for in vitro DNMT1 inhibition. | 
COC1=C(Br)[C@H](O)[C@@]2(C=C1Br)CC(C(=O)NCC(O)COc1c(Br)cc(C(O)CNC(=O)C3=NO[C@]4(C=C(Br)C(OC)=C(Br)[C@@H]4O)C3)cc1Br)=NO2 (some centres unmarked) [Iso-3, Isofistularin-3] |  | 13.5 ± 5.4

— publication PMC5029682, “Discovery and characterization of Isofistularin-3, a marine brominated alkaloid, as a new DNA demethylating agent inducing cell cycle arrest and sensitization to TRAIL in cancer cells” (Oncotarget, 2016)
